The target of assay [1] is FLT3 (Homo sapiens (Human), UniProt P36888). Put plainly: FLT3 Enzymatic Assay. In kind it is biochemical. Conditions: 1 mM ATP. How it is done: (§1) The kinase assays were carried out at room temperature in assay buffer (HEPES 50 mM, pH 7.0, NaN3 0.02%, BSA 0.01%, Orthovanadate 0.1 mM, DTT 1 mM, MgCl2 10 mM) in a final volume of 10 μL. Testing compounds were prepared by serial dilution in DMSO and transferred to the plate wells by ECHO liquid handler (Labcyte) with 0.5% DMSO in the final assay. […]. Reactions were initiated by the addition of 5 μL ATP in assay buffer. The final 10 μL kinase reaction consists of 0.011 nM FLT3, 1 mM ATP, 500 nM TK Substrate-biotin and SEB reagent 62.5 nM in assay buffer. […] The plates were then sealed and centrifuged at 1800 rpm for 2 minutes. After 60 minutes incubation at room temperature, the product activity was determined by measuring the fluorescence at 620 nm and 665 nm on Pherastar microplate reader (BMG Labtech). A ratio is calculated (665/620 nm) for each well. Wells with DMSO only were served as the positive controls and wells containing no ATP were used as negative controls. IC50 determination was performed by fitting the curve of percent control activity versus the log of the compound concentration using the GraphPad Prism 7.0 software.

Assay [2] relates to FLT3. Put plainly: FLT3 Enzymatic Assay. Type of assay: biochemical. How it is done:
as §1

In assay [3] the test system is TRKA. Put plainly: TRKA Enzymatic Assay. Type of assay: biochemical. How it is done: (§2) The kinase assays were carried out at 24° C. temperature in assay buffer (HEPES 50 mM, pH 7.0, NaN3 0.02%, BSA 0.01%, Orthovanadate 0.1 mM, DTT 1 mM, MgCl2 10 mM) in a final volume of 10 μL. Testing compounds were prepared by serial dilution in DMSO and transferred to the plate wells by ECHO liquid handler (Labcyte) with 0.5% DMSO in the final assay. […]. Reactions were initiated by the addition of 5 μL ATP in assay buffer. The final 10 μL kinase reaction consisted of 0.58 nM TRKA, 1 mM ATP, 500 nM TK Substrate-biotin and SEB reagent 62.5 nM in assay buffer. […] After 60 minutes incubation at room temperature, the product activity was determined by measuring the fluorescence at 620 nm and 665 nm on Pherastar microplate reader (BMG Labtech). A ratio was calculated (665/620 nm) for each well. Wells with DMSO only served as the positive controls and wells containing no ATP were used as negative controls. IC50 determination was performed by fitting the curve of percent control activity versus the log of the compound concentration using the Gene data.

Assay [4] deals with TRKA (Homo sapiens (Human), UniProt P04629). Description: TRKA Enzymatic Assay. In kind it is biochemical. Particulars: 1 mM ATP. How it is done:
as §2

Assay [5] deals with pseudo-kinase domain (JH2) of human V617F mutant JAK2 (Homo sapiens (Human), UniProt O60674, F794H/V617F/W659A/W777A). Description: JAK2 LanthaScreen JH2-V617F Binding Assay. Conditions: read-out: JH2 V617F Bind IC50. How it is done: JAK2 JH2-V617F binding assay utilizes pseudo-kinase domain (JH2, amino-acids 536-812 with 3 surface mutations W659A, W777A, F794H) of human V617F mutant JAK2 expressed as C-terminal His-Avi-tagged, biotinylated protein in a baculovirus expression system (BPS Bioscience, Catalog #79498). The assay was conducted in black 384-well polystyrene plates in a final reaction volume of 20 μL. JAK2 JH2-V617F (0.26 nM) was incubated with compounds (100 nL serially diluted in DMSO) in the presence of 50 nM Fluorescent JAK2-JH2 Tracer (MedChem Express Catalog #HY-102055) and 0.25 nM Streptavidin-Tb cryptate (Cisbio Part #610SATLB) in assay buffer (50 mM Tris, pH=7.5, 10 mM MgCl2, 0.01% Brij-35, 0.1% BSA, 1 mM EGTA, 5% Glycerol and 5 mM DTT). Non-specific binding was accessed in the presence of 2 mM ATP. After incubation for 1 hour at 25° C., LanthaScreen signals were read on a PHERAstar FS plate reader (BMG LABTECH). Data was analyzed with IDBS XLfit and GraphPad Prism 5.0 software using a four parameter dose response curve to determine IC50 for each compound.
A general note: Time-resolved FRET reads energy transfer from a long-lived donor to a nearby acceptor.

Assay [6] has as its system STAT5 (Tyr694) phosphorylation in SET-2 cells. Put plainly: STAT5 (Tyr694) Phosphorylation Cell Based Assay. Particulars: Homo sapiens, 2 hours, read-out: SET2 IC50. How it is done: SET-2 cells was purchased from DSMZ (Germany). RPMI1640 medium, Fetal Bovine Serum and 384-white sold flat-bottom small volume plate were purchased from Thermo Fisher Scientific (Waltham, MA). Phospho-STAT5 (Tyr694) HTRF kit was purchased from Perkin Elmer (Waltham, MA).
SET-2 cells were cultured in RPMI media with 20% FBS at 37° C. in humidified incubator supplied with 5% CO2. On the day of assay, the cells were centrifuged to remove the culture media and resuspended with prewarmed RPMI with 10% FBS. Testing compounds were prepared by serial dilution in DMSO and 50 nL/well test compounds were transferred to the 384 white low volume cell culture plate (Greiner Bio-one) by ECHO liquid handler (Labcyte). The cells were then dispensed with Multidrop (Thermo Fisher, Waltham, MA) at 10 μL/well (7×10^6 cells/mL) with 0.5% DMSO in the final assay. After the treated cells were incubated for 2 hours at 37° C./5% CO2 incubator, 4 μL/well supplemented lysis buffer (100× blocking buffer diluted 25 fold in 4× lysis buffer, Perkin Elmer) were added and incubated at room temperature for 90 min on orbital shaker at 600 rpm. Phospho-STAT5 Cryptate antibody and Phospho-STAT5 d2 antibody (1:1 vol/vol) were premixed and diluted 20 fold with in the detection buffer (Perkin Elmer). 4 μL of the premixed antibody solution were added to each well followed with 24 hours incubation at room temperature on orbital shaker at 600 rpm. The product activity was determined by measuring the fluorescence at 620 nm and 665 nm on Pherastar microplate reader (BMG Labtech). A ratio is calculated (665/620) for each well. Wells with DMSO only served as the positive controls and wells containing high concentration of control compound were used as negative controls. IC50 determination was performed by fitting the curve of percent control activity versus the log of the compound concentration using the GraphPad Prism 7.0 software.

Assay [7] has as its target catalytic domain (JH1) of human JAK2 (Homo sapiens (Human), UniProt O60674). Description: JAK2 LanthaScreen JH1 Binding Assay. Particulars: read-out: JH1 Bind IC50. How it is done:
JAK2 JH1 binding assay utilizes catalytic domain (JH1, amino acids 826-1132) of human JAK2 expressed as N-terminal FLAG-tagged, biotinylated protein in a baculovirus expression system (Carna Biosciences, Product #08-445-20N). The assay was conducted in black 384-well polystyrene plates in a final reaction volume of 20 μL. JAK2 JH1 (1.5 nM) was incubated with compounds (100 nL serially diluted in DMSO) in the presence of 50 nM fluorescent JAK2-JH1 tracer and 0.5 nM Streptavidin-Tb cryptate (Cisbio Part #610SATLB) in assay buffer (50 mM Tris, pH=7.5, 10 mM MgCl2, 0.01% Brij-35, 0.1% BSA, 1 mM EGTA, 5% Glycerol and 5 mM DTT). Non-specific binding was accessed in the presence of 2 mM ATP. After incubation for 2 hours at 25° C., LanthaScreen signals were read on a PHERAstar FS plate reader (BMG LABTECH). Data was analyzed with IDBS XLfit and GraphPad Prism 5.0 software using a four parameter dose response curve to determine IC50 for each compound.

Where only a bound is given, the exact number is not on record here.

The text below walks through data of patent US20250092044A1, “Kinase Inhibitors” (Incyte Corporation, priority 2023, published 2025).

One may read the IC50 as the point on the concentration scale where inhibition reaches its midpoint.

TRKA (Homo sapiens (Human), UniProt P04629), sequence (P04629 33-796, species assumed): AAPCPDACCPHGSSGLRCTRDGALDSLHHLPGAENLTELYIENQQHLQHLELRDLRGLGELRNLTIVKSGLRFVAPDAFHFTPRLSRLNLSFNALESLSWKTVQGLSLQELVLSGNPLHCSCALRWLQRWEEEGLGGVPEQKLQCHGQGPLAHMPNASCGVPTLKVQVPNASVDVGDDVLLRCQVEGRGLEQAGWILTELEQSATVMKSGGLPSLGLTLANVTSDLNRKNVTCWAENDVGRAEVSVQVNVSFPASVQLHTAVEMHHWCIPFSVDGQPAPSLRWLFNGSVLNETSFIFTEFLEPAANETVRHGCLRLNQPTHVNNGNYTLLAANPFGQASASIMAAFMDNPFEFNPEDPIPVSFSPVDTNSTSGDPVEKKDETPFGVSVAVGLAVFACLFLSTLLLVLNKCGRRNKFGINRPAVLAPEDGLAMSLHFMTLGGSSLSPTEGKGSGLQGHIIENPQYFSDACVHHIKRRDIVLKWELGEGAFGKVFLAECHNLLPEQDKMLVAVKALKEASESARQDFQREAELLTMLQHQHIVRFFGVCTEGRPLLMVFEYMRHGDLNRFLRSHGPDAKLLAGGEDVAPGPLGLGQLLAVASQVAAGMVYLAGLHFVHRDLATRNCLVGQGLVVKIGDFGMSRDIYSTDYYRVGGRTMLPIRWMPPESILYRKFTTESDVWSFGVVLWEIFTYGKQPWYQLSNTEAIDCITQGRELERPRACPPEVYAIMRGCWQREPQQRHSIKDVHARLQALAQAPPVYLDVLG
catalytic domain (JH1) of human JAK2, sequence (O60674 826-1132): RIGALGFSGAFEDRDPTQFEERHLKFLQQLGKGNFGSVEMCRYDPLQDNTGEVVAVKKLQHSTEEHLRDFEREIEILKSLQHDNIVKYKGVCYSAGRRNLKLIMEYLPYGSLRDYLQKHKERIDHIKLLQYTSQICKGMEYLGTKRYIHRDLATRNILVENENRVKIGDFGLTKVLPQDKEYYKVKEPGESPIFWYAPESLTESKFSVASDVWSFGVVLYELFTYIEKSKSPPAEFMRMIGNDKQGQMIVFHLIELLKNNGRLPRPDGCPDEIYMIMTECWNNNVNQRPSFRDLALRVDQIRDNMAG
FLT3 (Homo sapiens (Human), UniProt P36888), sequence (P36888 27-993, species assumed): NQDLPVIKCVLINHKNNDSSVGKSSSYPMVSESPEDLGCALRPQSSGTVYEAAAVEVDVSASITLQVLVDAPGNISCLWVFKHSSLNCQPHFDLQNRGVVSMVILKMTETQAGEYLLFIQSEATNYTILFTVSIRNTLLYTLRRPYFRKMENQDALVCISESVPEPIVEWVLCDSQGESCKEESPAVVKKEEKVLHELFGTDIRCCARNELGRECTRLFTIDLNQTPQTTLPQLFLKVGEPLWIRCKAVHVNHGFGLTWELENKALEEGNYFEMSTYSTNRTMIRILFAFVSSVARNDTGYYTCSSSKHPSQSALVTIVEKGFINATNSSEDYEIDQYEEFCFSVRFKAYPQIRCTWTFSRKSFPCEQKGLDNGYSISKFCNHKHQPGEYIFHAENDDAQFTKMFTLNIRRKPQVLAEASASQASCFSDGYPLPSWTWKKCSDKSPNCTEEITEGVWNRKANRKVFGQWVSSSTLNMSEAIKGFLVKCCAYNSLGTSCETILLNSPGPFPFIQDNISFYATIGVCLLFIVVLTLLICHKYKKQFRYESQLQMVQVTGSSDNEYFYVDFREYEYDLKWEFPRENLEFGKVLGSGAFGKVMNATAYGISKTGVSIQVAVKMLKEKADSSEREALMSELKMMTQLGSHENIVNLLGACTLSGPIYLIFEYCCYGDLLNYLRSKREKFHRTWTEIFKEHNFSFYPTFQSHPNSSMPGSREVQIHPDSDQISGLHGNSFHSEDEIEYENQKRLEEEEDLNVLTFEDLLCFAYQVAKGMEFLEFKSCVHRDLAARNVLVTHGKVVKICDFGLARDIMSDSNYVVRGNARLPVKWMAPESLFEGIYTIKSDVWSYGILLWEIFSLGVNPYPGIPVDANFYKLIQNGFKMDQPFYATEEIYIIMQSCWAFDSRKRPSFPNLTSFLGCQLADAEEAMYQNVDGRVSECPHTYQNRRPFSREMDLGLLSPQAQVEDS
pseudo-kinase domain (JH2) of human V617F mutant JAK2, sequence (O60674 536-812 V617F/W659A/W777A/F794H): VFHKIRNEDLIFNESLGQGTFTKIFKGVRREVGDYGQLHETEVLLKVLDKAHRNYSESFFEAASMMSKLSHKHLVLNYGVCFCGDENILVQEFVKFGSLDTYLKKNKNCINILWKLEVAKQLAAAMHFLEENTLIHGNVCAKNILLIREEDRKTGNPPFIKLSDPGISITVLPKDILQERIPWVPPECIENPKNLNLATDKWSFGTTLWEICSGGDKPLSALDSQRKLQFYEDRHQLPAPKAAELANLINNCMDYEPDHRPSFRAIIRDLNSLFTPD

On to `Cn1cc(-c2[nH]c3ncc4c(c3c2-c2ccc3c(cnn3C)c2)n([C@H]2CC[C@@H](CC#N)CC2)c(=O)n4C)cn1` [Comparative Example C, reference compound], for which the figures for the half-maximal inhibitory concentration (IC50) in assay [1], in assay [4] and in assay [5] were less than 25 nM, less than 25 nM and not above 10 nM, respectively. Besides, the “Selectivity FLT3/JH2 V617F” value in assay [2] is “* (selectivity of ≤500-fold)”. Further, the “Selectivity TRKA/JH2 V617F” value in assay [3] is “* (selectivity of ≤500-fold)”.

Regarding `CCn1c(=O)n(C2CCCC2)c2c3cc(-c4ccc(CN5CCC(S(C)(=O)=O)CC5)cc4)[nH]c3ncc21` [Comparative Example G, reference compound], the IC50 in assay [5] was more than 1000 nM.

On to `Cn1c(=O)n(C2CCCC2)c2c3c(-c4ccccc4)c(-c4ccc(CN5CCC(S(C)(=O)=O)CC5)cc4)[nH]c3ncc21` [Comparative Example H, reference compound], for which the IC50 in assay [1] was 25 to 250 nM; in assay [6], 300 to 800 nM; in assay [4], 25 to 250 nM; in assay [5], not above 10 nM. For the same compound, the “Selectivity FLT3/JH2 V617F” value in assay [2] is “* (selectivity of ≤500-fold)”. Also, the “Selectivity TRKA/JH2 V617F” value in assay [3] was “* (selectivity of ≤500-fold)”.

With `Cn1ncc2cc(-c3c(-c4ccc(CN5CCC(S(C)(=O)=O)CC5)cc4)[nH]c4ncc5c(c34)n(C3CCCC3)c(=O)n5C)ccc21` [Comparative Example I, reference compound], the IC50 in assay [1] is less than 25 nM; in assay [6] it was 300 to 800 nM; in assay [4] it was less than 25 nM; in assay [5], not above 10 nM. Besides, the “Selectivity FLT3/JH2 V617F” value in assay [2] is reported as “* (selectivity of ≤500-fold)”. For the same compound, the “Selectivity TRKA/JH2 V617F” value in assay [3] is on record as “* (selectivity of ≤500-fold)”.

As for `CNC(=O)c1ccc(-c2[nH]c3ncc4c(c3c2-c2cccc(F)c2)n([C@@H]2CC[C@@H](NC(=O)OC)C2)c(=O)n4C)cc1F` [Example 1, Methyl ((1R,3R)-3-(7-(3-fluoro-4-(methylcarbamoyl)phenyl)-8-(3-fluorophenyl)-3-methyl-2-oxo-3,6-dihydroimidazo[4,5-d]pyrrolo[2,3-b]pyridin-1(2H)-yl)cyclopentyl)carbamate], the IC50 was more than 1000 nM in assay [7], more than 800 nM in assay [6] and not above 10 nM in assay [5].

Take `COC(=O)N[C@@H]1CC[C@@H](n2c(=O)n(C)c3cnc4[nH]c(-c5ccc(C(=O)NC(C)C)c(F)c5)c(-c5cccc(F)c5)c4c32)C1` [Example 2, Methyl ((1R,3R)-3-(7-(3-fluoro-4-(isopropylcarbamoyl)phenyl)-8-(3-fluorophenyl)-3-methyl-2-oxo-3,6-dihydroimidazo[4,5-d]pyrrolo[2,3-b]pyridin-1(2H)-yl)cyclopentyl)carbamate]: the half-inhibitory concentration (IC50) in assay [7] was more than 1000 nM; in assay [6], more than 800 nM; in assay [5] it was not above 10 nM.

`CNC(=O)c1c(F)cc(-c2[nH]c3ncc4c(c3c2-c2cccc(F)c2)n([C@@H]2CC[C@@H](NC(=O)OC)C2)c(=O)n4C)cc1F` [Example 3, Methyl ((1R,3R)-3-(7-(3,5-difluoro-4-(methylcarbamoyl)phenyl)-8-(3-fluorophenyl)-3-methyl-2-oxo-3,6-dihydroimidazo[4,5-d]pyrrolo[2,3-b]pyridin-1(2H)-yl)cyclopentyl)carbamate]: the values for the IC50 in assay [7], in assay [6] and in assay [5] were more than 1000 nM, more than 800 nM and not above 10 nM, respectively.

Turning to `COC(=O)N[C@@H]1CC[C@@H](n2c(=O)n(C)c3cnc4[nH]c(-c5cc(F)c(C(=O)NC6CC6)c(F)c5)c(-c5cccc(F)c5)c4c32)C1` [Example 4, Methyl ((1R,3R)-3-(7-(4-(cyclopropylcarbamoyl)-3,5-difluorophenyl)-8-(3-fluorophenyl)-3-methyl-2-oxo-3,6-dihydroimidazo[4,5-d]pyrrolo[2,3-b]pyridin-1(2H)-yl)cyclopentyl)carbamate], the results for the concentration for half-maximal inhibition (IC50) in assay [7], in assay [6] and in assay [5] were more than 1000 nM, more than 800 nM and not above 10 nM, respectively.

For `COC(=O)N[C@@H]1CC[C@@H](n2c(=O)n(C)c3cnc4[nH]c(-c5ccc(C(=O)N6CC(OC)C6)c(F)c5)c(-c5ccc6c(cnn6C(C)C)c5)c4c32)C1` [Example 17, Methyl ((1R,3R)-3-(7-(3-fluoro-4-(3-methoxyazetidine-1-carbonyl)phenyl)-8-(1-isopropyl-1H-indazol-5-yl)-3-methyl-2-oxo-3,6-dihydroimidazo[4,5-d]pyrrolo[2,3-b]pyridin-1(2H)-yl)cyclopentyl)carbamate], the results for the IC50 in assay [7], in assay [6] and in assay [5] were more than 1000 nM, more than 800 nM and not above 10 nM, respectively.
